Data as given in US8653271B2 (priority 2006, dated 2014).

What was measured:
[1] = humans, systemic circulation after oral dose of NTX; cited from earlier work
[2] = human skin; for Mean permeability coefficient (KP × 10^3): from steady-state flux and donor solubility; for Flux from mineral oil: saturated solution in light mineral oil, 32° C., 48 h, codrug in 6-β-naltrexol equivalents
Description: Human skin harvested during abdominal reduction surgery was used for the diffusion studies. Skin sections were obtained by using a Padgett dermatome set to 250 μm; these sections were stored at −20° C. Stored skin samples were thawed to room temperature at the time of the experiment. A PermeGear flow-through (In-Line, Riegelsville, Pa., USA) diffusion cell system was used for the skin permeation studies. Skin surface temperature was maintained at 32° C. with a circulating water bath. Data was collected by using human skin from a single donor with three cells of 6-β-naltrexol and four cells CB-NTXOL-BUPOH. Because of normal human skin inter-subject permeation variability, the codrug was compared against 6-β-naltrexol permeation within each individual skin sample. These studies were repeated three times with skin from different human subject donors. The receiver solution was HEPES-buffered Hanks' balanced salt solution pH 7.4 set at a flow rate of 1.1 ml/h. […] A saturated solution of 6-β-naltrexol or CB-NTXOL-BUPOH in light mineral oil was applied to the skin in order to maintain a maximum and constant thermodynamic activity of the drug. Each cell was charged with 0.25 ml of the respective drug solution. […] All samples were immediately processed by solid phase extraction, evaporated under nitrogen, reconstituted, and analyzed for drug content by HPLC. The human tissue use was approved by the University of Kentucky Institutional Review Board.
Cumulative quantity of drug collected in the receiver compartment was plotted as a function of time. The flux value for a given experiment was obtained from the slope of the steady-state portion of the cumulative amount of drug permeated vs. time plot. Apparent permeability coefficient values were computed from Fick's First Law of diffusion:
Sink conditions were maintained in the receiver throughout the experiment, so ΔC was approximated by the drug concentration (solubility in this case) in the donor compartment.
The skin tissue was rinsed with filtered water and blotted with a paper towel. The tissue was tape-stripped twice to remove surface formulation. The area of skin with drug contact was cut out, chopped into tiny pieces, and placed in a pre-weighed vial. The vial was weighed to calculate the mass of the skin. Ten milliliters of acetonitrile was added to each vial, the vials vortexed, sonicated for 10 min, and placed in a shaker overnight. The following day, a 1 ml sample was obtained from the vials and placed in autosampler vials for analysis. […] Flux values and skin concentrations for each of the drugs were reported as mean±S.D and were statistically compared using a paired Student's t-test. Flux enhancement as well as drug disposition in the skin were considered significant at p<0.05.

[3] = system: electrically-stimulated guinea pig ileum; settings: in vitro; cited from earlier work
[4] = Table 4; values obtained from Kiptoo et al.; cited from earlier work
[5] = Predicting plasma concentrations from in vitro permeation studies; settings: for plasma level predicted with 5.6-fold guinea pig/human skin factor: 6-β-naltrexol equivalents; for Predicted CSS of 6-β-naltrexol: Predicted from in vitro human skin diffusion data
From the text: To predict the plasma concentration of 6-β-naltrexol after application of the gel formulation containing either the codrug or the control formulation, the following equation was used: […]
where CSS is the predicted steady state plasma concentration (ng/ml); JSS is the steady-state flux from in vitro permeation in Table 4 from previous studies; A is the area of the skin in contact with the formulation (14.5 cm^2); Cl is the total body clearance. […] Guinea pig skin is often more permeable than human skin, especially when the stratum corneum is the major rate-limiting step in the absorption process.

[6] = previous experiments; cited from earlier work
[7] = Stratum corneum/vehicle partition coefficient studies; format: in vitro ADME, human; settings: mineral oil vehicle, 32° C., 48 h; no units
Description: Human epidermis with stratum corneum (SC) side facing up was incubated on filter paper soaked with 0.1% trypsin in 0.5% sodium bicarbonate solution at 37° C. for 3 h. The SC membrane was separated and dried in a vacuum dessicator. After 24 h, the SC was dipped in acetone for 20 s to remove sebaceous lipids and dried again.
Approximately 5 mg of SC was equilibrated with sub-saturated drug solutions in 0.5 g of mineral oil solution at 32° C. for 48 h. Two different levels of sub-saturated drug solutions, 10 and 20 nmol in 0.5 g of mineral oil, were used in SC/vehicle partition coefficient studies. However, irrespective of the drug concentrations used, the ratio derived should always be the same since the partition coefficient measurement is an equilibrium phenomenon. An aliquot of the mineral oil solution (10 μl) was withdrawn at the end of the study and was diluted to 1000 μl with acetonitrile. The samples were then analyzed by HPLC. The amount of the drug partitioned into the SC was measured by subtracting the amount present in the mineral oil after equilibration from the initial drug concentration in the mineral oil. The partition coefficient ratio was expressed as the concentration of the drug in 1 g of SC divided by the concentration of the drug in 1 g of mineral oil.

[8] = mice, versus naloxone and naltrexone; cited from earlier work
[9] = format: physicochemical; settings: isotonic phosphate buffer pH 7.4, 32° C.
Description: Equal amounts of the each of the codrug were distributed into labeled test-tubes (20 nmol in each tube). Care was taken to ensure that the entire codrug was dissolved and the solution remained clear. Hydrolysis of the carbonate codrug (˜20 nmol) was conducted in isotonic phosphate buffer pH 7.4 at 32° C. in a water-bath with continuous stirring. […] Samples were collected at predetermined time intervals and stored in the freezer at −20° C. until analyzed. All experiments were conducted in triplicate. An aliquot part (250 μL) of hydrolysis solutions was mixed with 750 μL of acetonitrile, vortexed for 30s, and analyzed by HPLC for the presence of codrug and the two corresponding parent drugs, as well as for the intermediate hydrolysis product, 23. […] A Brownlee C18 reversed-phase Spheri-5 μm column (220×4.6 mm) connected to a C18 reversed-phase guard column (15×3.2 mm) was utilized and detection of solutes was carried out at 215 nm. The mobile phase consisted of a mixture of acetonitrile: 0.1% trifluoroacetic acid adjusted to pH 3.0 with triethylamine (50:50, v/v). The mobile phase flow rate was 1.5 mL/min and 100 μL of hydrolysis sample was injected onto the column.

[10] = cumulative 6-β-naltrexol equivalents permeated

SMILES | half-life [1] | Mean permeability coefficient (KP × 10^3) [2] [cm/h] | Flux from mineral oil [2] [nmol cm^−2 h^−1] | potency relative to naloxone [3] [fold] | potency relative to naltrexone [3] [fold] | Light mineral oil solubility [4] [µM] | plasma level predicted with 5.6-fold guinea pig/human skin factor [5] [ng/mL] | Predicted CSS of 6-β-naltrexol [5] [ng/mL] | Predicted CSS of 6-β-naltrexol ([5]; listed as NTXOL) [ng/mL] | flux and other in vitro permeation parameters, guinea pig skin relative to human skin [6] [fold] | SC/Vehicle partition coefficient, PC [7] | in vivo potency of an acute dose [8] | share of 6-β-naltrexol flux from intact CB-NTXOL-BUPOH [2, 10] | share of 6-β-naltrexol flux originating from skin hydrolysis of codrug [2, 10] [%] | Predicted CSS of 6-β-naltrexol ([5]; listed as CB-NTXOL-BUPOH) [ng/mL] | first-order rate constant k2 ([9]; generation of BUPOH via intermediate from codrug 26) [h⁻¹] | first-order rate constant k1 ([9]; hydrolysis at carbonate linker generating NTX (25) or NTXOL (26)) [h⁻¹]
Oc1ccc2c3c1O[C@H]1[C@H](O)CC[C@@]4(O)[C@@H](C2)N(CC2CC2)CC[C@]314 [Compound 2, 6-β-naltrexol] | about 12 h | 12.00 | 0.36 | 4.5 | 2.8 | 30 ± 10 | 1.1 | 0.2 ± 0.1 | 0.2 ± 0.1 | 5.6 | 73.91 | less than the other two antagonists |  |  |  |  | 
Cc1c(-c2cccc(Cl)c2)oc(=O)n1C(C)(C)COC(=O)Oc1ccc2c3c1OC1C(O)CCC4(O)C(C2)N(CC2CC2)CCC314 (stereo not shown) [Compound 26] |  | 0.47 | 1.34 |  |  | 2880 ± 90 | 3.9 |  |  |  | 200.61 |  | approximately 35% | 65 | 0.7 ± 0.3 | 0.0139 ± 0.0006 | 0.0240 ± 0.0007
